Measurements reported in patent publication US12655142B2 (Merck Patent GmbH, priority 2019, dated 2026).

What was measured:
[1] = pH 7.4
Method: (§2) In a 96 well filtration plate, 2 μL of a 10 mM solution of the test compound in DMSO is added to 98 μL of 20 mM Sorensen phosphate buffer with pH 7.4. The mixture is incubated at room temperature for 120 min while agitating at 250 rpm followed by centrifugation at 2500 rpm for 3 min. After dilution by a factor of 2, the concentration of the test compound is determined using HPLC/UPLC with detection at a suitable wavelength and by comparison to a corresponding compound standard.

c-Kit(V654A) = biological target: T1, c-Kit(V654A) (Homo sapiens, UniProt P10721, V654A); assay: c-Kit(V654A) assay (33P-ATP filter binding kinase assay); assay type: biochemical; settings: recombinant human c-Kit aa 544-end V654A, ATP 200 μM
T1 construct: recombinant human c-Kit, amino acids 544-end containing the V654A mutation; GST (N)
Summary of the method: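 Radiometric filter-binding read-out: substrate 33P incorporation counted by scintillation after P30 filtermat washes in 75 mM phosphoric acid and methanol. Enzyme: N-GST recombinant human c-Kit aa 544-end carrying V654A.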

[2] = biological target: T2, GIST430/654 cell line expressing mutated constitutively active cKIT receptor tyrosine kinase (Δ560-576 deletion and V654A point mutation) (Homo sapiens, UniProt P10721, DEL560-576/V654A); assay: Cellular cKIT autophosphorylation (phospho-Y307-cKIT, Luminex bead assay) in GIST430/654 cells; assay type: cell-based; settings: compounds 45 min, read-out: GIST 430/654 IC50
T2 construct: endogenous in cells; host or cells: GIST430/654 cells
Summary of the method: (§1)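 Phospho-Y307 cKIT in lysates was measured on a Luminex bead assay, with total-cKIT capture overnight at 4 °C and phosphospecific plus PE secondary detection. Cells had 45 min exposure to a compound dilution series the day after plating: GIST430 (Δ560-576) or GIST430/654 (Δ560-576/V654A, grown with 100 nM imatinib). IC50 values are relative to 0.3% DMSO-treated cells.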

[3] = biological target: T3, GIST430 cell line expressing constitutive active cKIT receptor tyrosine kinase (Δ560-576 deletion) (Homo sapiens, UniProt P10721, DEL560-576); assay: Cellular cKIT autophosphorylation (phospho-Y307-cKIT, Luminex bead assay) in GIST430 cells; assay type: cell-based; settings: cKIT autophosphorylation, GIST430 cells, compounds 45 min; read-out: GIST 430 IC50
T3 construct: endogenous in cells; host or cells: GIST430 cells
Summary of the method: as §1

[4] = Determination of solubility; settings: 20 mM Sorensen phosphate buffer, pH 7.4, aqueous buffer, kinetic from dmso stock
Method: as §2

[5] = Determination of Efflux-Ratio (ER) in Caco-2 cells; settings: human, Caco-2, pH 7.4

T1 sequence (P10721 544-976 V654A): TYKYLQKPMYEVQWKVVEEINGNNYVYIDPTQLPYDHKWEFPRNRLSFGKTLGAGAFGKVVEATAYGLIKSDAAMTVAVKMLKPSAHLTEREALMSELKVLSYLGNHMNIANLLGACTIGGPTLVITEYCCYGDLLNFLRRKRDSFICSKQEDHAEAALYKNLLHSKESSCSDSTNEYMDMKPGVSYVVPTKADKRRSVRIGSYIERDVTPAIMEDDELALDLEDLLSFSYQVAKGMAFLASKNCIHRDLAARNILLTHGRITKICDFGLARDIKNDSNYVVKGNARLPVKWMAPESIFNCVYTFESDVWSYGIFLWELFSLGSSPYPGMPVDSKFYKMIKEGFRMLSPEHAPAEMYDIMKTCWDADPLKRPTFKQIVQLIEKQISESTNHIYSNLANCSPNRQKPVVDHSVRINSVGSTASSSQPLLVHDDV
T3 sequence (P10721 with tags, fused parts or gaps DEL560-576): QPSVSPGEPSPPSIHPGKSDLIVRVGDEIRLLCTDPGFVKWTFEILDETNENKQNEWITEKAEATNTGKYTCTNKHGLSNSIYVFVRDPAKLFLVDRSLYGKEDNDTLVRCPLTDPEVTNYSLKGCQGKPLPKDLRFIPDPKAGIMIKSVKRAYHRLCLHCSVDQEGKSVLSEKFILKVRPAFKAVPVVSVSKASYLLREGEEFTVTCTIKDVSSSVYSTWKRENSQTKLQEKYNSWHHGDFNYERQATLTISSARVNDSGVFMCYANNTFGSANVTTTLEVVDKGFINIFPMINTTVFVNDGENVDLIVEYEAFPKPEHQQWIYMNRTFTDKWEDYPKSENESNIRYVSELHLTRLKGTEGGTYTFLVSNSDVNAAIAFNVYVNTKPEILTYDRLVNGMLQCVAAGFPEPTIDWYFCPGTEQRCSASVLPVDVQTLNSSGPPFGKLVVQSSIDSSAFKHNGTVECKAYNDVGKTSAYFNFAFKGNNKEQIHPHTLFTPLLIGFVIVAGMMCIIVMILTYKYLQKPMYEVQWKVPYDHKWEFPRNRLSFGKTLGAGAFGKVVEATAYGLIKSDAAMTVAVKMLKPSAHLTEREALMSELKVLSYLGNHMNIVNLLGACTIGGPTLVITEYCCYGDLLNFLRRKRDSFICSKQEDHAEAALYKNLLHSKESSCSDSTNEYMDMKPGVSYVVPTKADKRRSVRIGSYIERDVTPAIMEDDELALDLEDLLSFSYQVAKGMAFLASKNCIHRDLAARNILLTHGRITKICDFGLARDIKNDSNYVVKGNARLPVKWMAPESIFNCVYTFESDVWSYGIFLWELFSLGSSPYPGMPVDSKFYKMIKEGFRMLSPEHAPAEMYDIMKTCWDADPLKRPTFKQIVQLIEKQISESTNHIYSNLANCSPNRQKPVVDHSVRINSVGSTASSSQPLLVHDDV
T2 sequence (P10721 with tags, fused parts or gaps DEL560-576/V654A): as the sequence (P10721 with tags, fused parts or gaps DEL560-576) above, with V612A counted along it

| solubility [1] | IC50 (c-Kit(V654A)) [nM] | IC50 [2] [nM] | IC50 [3] [nM] | solubility at 120 min [4] [µM] | efflux ratio at 2 h, 1 μM [5] | Compound |
| --- | --- | --- | --- | --- | --- | --- |
| at least 25 μM | 9.8 | 46 | 3 |  |  | Cn1cc(-c2ccc(CNc3cc(-c4cnc5cc(OCCCN6CCC6)ccn45)ncn3)cc2)cn1 [A102] |
|  | 2.9 | 52 | 2.3 | ≥ 25 | < 15 | Cn1ncc(-c2ccc(CNc3cc(-c4cnc5cc(OCCCN6CCC6)ccn45)ncn3)cc2)n1 [A120, {6-[7-(3-azetidin-1-yl-propoxy)-imidazo[1,2-a]pyridin-3-yl]-pyrimidin-4-yl}-[4-(2-methyl-2H-[1,2,3]triazol-4-yl)-benzyl]-amine] |
|  | 6.4 | 120 | 6.4 | ≥ 25 | < 15 | F[C@@H]1CCN(c2ccc(CNc3cc(-c4cnc5ccccn45)ncn3)cn2)C1 [A153, N-({6-[(3R)-3-fluoropyrrolidin-1-yl]pyridin-3-yl}methyl)-6-{imidazo[1,2-a]pyridin-3-yl}pyrimidin-4-amine] |
